Key:
[1] = The drug is tested on Providencia rettgeri strain: DSM1131 for biotransformation. The drug concentrations were measured before and after a 12-h incubation by liquid-chromatography-coupled mass spectrometry (LC–MS); assay type: ADME; parameters: dose 2 uM, timepoint 0 vs 12 hours; conditions: 2 µM
[2] = The drug is tested on Ruminococcus torques strain: ATCC27756 for biotransformation. The drug concentrations were measured before and after a 12-h incubation by liquid-chromatography-coupled mass spectrometry (LC–MS); assay type: ADME; parameters: dose 2 uM, timepoint 0 vs 12 hours; conditions: 2 µM
[3] = bacteroides intestinalis, 12 h, 2 µM
Description: The drug is tested on Bacteroides intestinalis strain: DSM17393 for biotransformation. The drug concentrations were measured before and after a 12-h incubation by liquid-chromatography-coupled mass spectrometry (LC–MS)

[4] = The drug is tested on Ruminococcus lactaris strain: ATCC29176 for biotransformation. The drug concentrations were measured before and after a 12-h incubation by liquid-chromatography-coupled mass spectrometry (LC–MS); conditions: 2 µM
[5] = The drug is tested on Bacteroides caccae strain: ATCC43185 for biotransformation. The drug concentrations were measured before and after a 12-h incubation by liquid-chromatography-coupled mass spectrometry (LC–MS); conditions: 2 µM
[6] = The drug is tested on Coprococcus comes strain: ATCC27758 for biotransformation. The drug concentrations were measured before and after a 12-h incubation by liquid-chromatography-coupled mass spectrometry (LC–MS); assay type: ADME; parameters: dose 2 uM, timepoint 0 vs 12 hours; conditions: 2 µM
[7] = The drug is tested on Clostridium asparagiforme strain: DSM15981 for biotransformation. The drug concentrations were measured before and after a 12-h incubation by liquid-chromatography-coupled mass spectrometry (LC–MS); assay type: ADME; parameters: dose 2 uM, timepoint 0 vs 12 hours; conditions: enterocloster asparagiformis, 2 µM
[8] = bacteroides fragilis, 12 h, 2 µM
Description: The drug is tested on Bacteroides fragilis strain: DS-208 for biotransformation. The drug concentrations were measured before and after a 12-h incubation by liquid-chromatography-coupled mass spectrometry (LC–MS)

[9] = The drug is tested on Enterobacter cancerogenus strain: ATCC35316 for biotransformation. The drug concentrations were measured before and after a 12-h incubation by liquid-chromatography-coupled mass spectrometry (LC–MS); conditions: 2 µM
[10] = The drug is tested on Clostridium sporogenes strain: ATCC15579 for biotransformation. The drug concentrations were measured before and after a 12-h incubation by liquid-chromatography-coupled mass spectrometry (LC–MS); conditions: 2 µM
[11] = The drug is tested on Bacteroides fragilis strain: HMW615 for biotransformation. The drug concentrations were measured before and after a 12-h incubation by liquid-chromatography-coupled mass spectrometry (LC–MS); conditions: 2 µM
[12] = The drug is tested on Bacteroides cellulosilyticus strain: DSM14838 for biotransformation. The drug concentrations were measured before and after a 12-h incubation by liquid-chromatography-coupled mass spectrometry (LC–MS); conditions: 2 µM
[13] = The drug is tested on Collinsella aerofaciens strain: ATCC25986 for biotransformation. The drug concentrations were measured before and after a 12-h incubation by liquid-chromatography-coupled mass spectrometry (LC–MS); conditions: 2 µM
[14] = The drug is tested on Blautia hansenii strain: DSM20583 for biotransformation. The drug concentrations were measured before and after a 12-h incubation by liquid-chromatography-coupled mass spectrometry (LC–MS); conditions: 2 µM
[15] = bacteroides fragilis, 12 h, 2 µM; remark: listed apart in the source
Description: The drug is tested on Bacteroides fragilis strain: NCTC 9343 for biotransformation. The drug concentrations were measured before and after a 12-h incubation by liquid-chromatography-coupled mass spectrometry (LC–MS)

[16] = The drug is tested on Clostridium ramosum strain: DSM1402 for biotransformation. The drug concentrations were measured before and after a 12-h incubation by liquid-chromatography-coupled mass spectrometry (LC–MS); conditions: thomasclavelia ramosa, 2 µM
[17] = The drug is tested on Odoribacter splanchnicus strain: fecal isolate for biotransformation. The drug concentrations were measured before and after a 12-h incubation by liquid-chromatography-coupled mass spectrometry (LC–MS); conditions: 2 µM
[18] = The drug is tested on Anaerotruncus colihominis strain: DSM17241 for biotransformation. The drug concentrations were measured before and after a 12-h incubation by liquid-chromatography-coupled mass spectrometry (LC–MS); conditions: 2 µM
[19] = The drug is tested on Bifidobacterium longum subsp. Infantis strain: CCUG52486 for biotransformation. The drug concentrations were measured before and after a 12-h incubation by liquid-chromatography-coupled mass spectrometry (LC–MS); conditions: 2 µM
[20] = The drug is tested on Bifidobacterium ruminantium strain: fecal isolate for biotransformation. The drug concentrations were measured before and after a 12-h incubation by liquid-chromatography-coupled mass spectrometry (LC–MS); conditions: 2 µM

| SMILES | Bacterial Biotransformation [1] | Bacterial Biotransformation [2] | Bacterial Biotransformation [3] | Bacterial Biotransformation [4] | Bacterial Biotransformation [5] | Bacterial Biotransformation [6] | Bacterial Biotransformation [7] | Bacterial Biotransformation [8] | Bacterial Biotransformation [9] | Bacterial Biotransformation [10] | Bacterial Biotransformation [11] | Bacterial Biotransformation [12] | Bacterial Biotransformation [13] | Bacterial Biotransformation [14] | Bacterial Biotransformation [15] | Bacterial Biotransformation [16] | Bacterial Biotransformation [17] | Bacterial Biotransformation [18] | Bacterial Biotransformation [19] | Bacterial Biotransformation [20] |
| --- | --- | --- | --- | --- | --- | --- | --- | --- | --- | --- | --- | --- | --- | --- | --- | --- | --- | --- | --- | --- |
| C[C@@H]1C[C@H]2[C@@H]3CCC4=CC(=O)C=C[C@]4(C)[C@@]3(F)[C@@H](O)C[C@]2(C)[C@@]1(O)C(=O)CO [DEXAMETHASONE] | Compound NOT metabolized | Compound NOT metabolized | Compound NOT metabolized | Compound NOT metabolized | Compound NOT metabolized | Compound NOT metabolized | Compound NOT metabolized | Compound metabolized | Compound NOT metabolized | – | – | – | – | – | – | – | – | – | – | – |
| CN(C)C(=O)C(CCN1CCC(O)(c2ccc(Cl)cc2)CC1)(c1ccccc1)c1ccccc1 [LOPERAMIDE] | Compound metabolized | Compound NOT metabolized | – | Compound NOT metabolized | Compound NOT metabolized | – | Compound NOT metabolized | – | – | Compound metabolized | Compound NOT metabolized | Compound NOT metabolized | Compound NOT metabolized | Compound metabolized | Compound metabolized | Compound NOT metabolized | Compound metabolized | Compound NOT metabolized | – | – |
| CC12CC3CC(C)(C1)CC(N)(C3)C2 [MEMANTINE] | – | Compound NOT metabolized | Compound NOT metabolized | – | Compound NOT metabolized | Compound NOT metabolized | Compound NOT metabolized | Compound NOT metabolized | Compound NOT metabolized | Compound NOT metabolized | Compound NOT metabolized | – | Compound NOT metabolized | – | Compound NOT metabolized | Compound NOT metabolized | Compound NOT metabolized | Compound NOT metabolized | Compound NOT metabolized | Compound metabolized |
| CC(C)(C)NC[C@H](O)COc1ccccc1C1CCCC1.CC(C)(C)NC[C@H](O)COc1ccccc1C1CCCC1.O=S(=O)(O)O [PENBUTOLOL SULFATE] | – | Compound NOT metabolized | Compound NOT metabolized | Compound NOT metabolized | Compound NOT metabolized | Compound NOT metabolized | Compound NOT metabolized | – | – | Compound NOT metabolized | Compound NOT metabolized | Compound NOT metabolized | Compound NOT metabolized | – | Compound NOT metabolized | – | Compound NOT metabolized | Compound NOT metabolized | Compound NOT metabolized | – |

Continued, values first:

| Bacterial Biotransformation [1] | Bacterial Biotransformation [2] | Bacterial Biotransformation [3] | Bacterial Biotransformation [4] | Bacterial Biotransformation [5] | Bacterial Biotransformation [6] | Bacterial Biotransformation [7] | Bacterial Biotransformation [8] | Bacterial Biotransformation [9] | Bacterial Biotransformation [10] | Bacterial Biotransformation [11] | Bacterial Biotransformation [12] | Bacterial Biotransformation [13] | Bacterial Biotransformation [14] | Bacterial Biotransformation [15] | Bacterial Biotransformation [16] | Bacterial Biotransformation [17] | Bacterial Biotransformation [18] | Bacterial Biotransformation [19] | Bacterial Biotransformation [20] | SMILES |
| --- | --- | --- | --- | --- | --- | --- | --- | --- | --- | --- | --- | --- | --- | --- | --- | --- | --- | --- | --- | --- |
| Compound NOT metabolized | – | Compound NOT metabolized | – | Compound NOT metabolized | Compound NOT metabolized | Compound NOT metabolized | – | Compound NOT metabolized | – | Compound NOT metabolized | Compound NOT metabolized | Compound NOT metabolized | – | Compound NOT metabolized | – | – | – | Compound NOT metabolized | – | OC(c1cc(C(F)(F)F)nc2c(C(F)(F)F)cccc12)C1CCCCN1 (centres undefined) [MEFLOQUINE] |
| Compound NOT metabolized | Compound NOT metabolized | Compound NOT metabolized | Compound NOT metabolized | Compound NOT metabolized | Compound NOT metabolized | Compound NOT metabolized | Compound NOT metabolized | Compound NOT metabolized | Compound NOT metabolized | Compound NOT metabolized | Compound NOT metabolized | Compound NOT metabolized | – | – | Compound NOT metabolized | Compound NOT metabolized | Compound NOT metabolized | Compound NOT metabolized | – | CC(C)(C)NCC(O)COc1cccc2c1CC(O)C(O)C2 (centres undefined) [NADOLOL] |
| – | Compound NOT metabolized | Compound NOT metabolized | – | Compound NOT metabolized | Compound NOT metabolized | Compound NOT metabolized | Compound metabolized | Compound NOT metabolized | Compound NOT metabolized | Compound NOT metabolized | Compound NOT metabolized | Compound NOT metabolized | – | – | Compound NOT metabolized | Compound metabolized | Compound NOT metabolized | Compound NOT metabolized | Compound NOT metabolized | CC(=O)O[C@H]1C(=O)[C@@]2(C)[C@H]([C@H](OC(=O)c3ccccc3)[C@]3(O)C[C@H](OC(=O)[C@H](O)[C@@H](NC(=O)c4ccccc4)c4ccccc4)C(C)=C1C3(C)C)[C@]1(OC(C)=O)CO[C@@H]1C[C@@H]2O [PACLITAXEL] |
| Compound NOT metabolized | Compound NOT metabolized | Compound NOT metabolized | Compound NOT metabolized | Compound NOT metabolized | Compound NOT metabolized | Compound NOT metabolized | Compound NOT metabolized | Compound NOT metabolized | Compound NOT metabolized | Compound NOT metabolized | Compound NOT metabolized | Compound NOT metabolized | Compound NOT metabolized | Compound NOT metabolized | – | Compound NOT metabolized | Compound NOT metabolized | Compound NOT metabolized | Compound NOT metabolized | CCc1nc(N)nc(N)c1-c1ccc(Cl)cc1 [PYRIMETHAMINE] |
| Compound NOT metabolized | Compound NOT metabolized | Compound NOT metabolized | Compound NOT metabolized | Compound NOT metabolized | Compound NOT metabolized | Compound NOT metabolized | – | Compound NOT metabolized | – | Compound metabolized | Compound NOT metabolized | Compound NOT metabolized | Compound NOT metabolized | Compound NOT metabolized | Compound NOT metabolized | Compound NOT metabolized | Compound NOT metabolized | Compound NOT metabolized | Compound NOT metabolized | O=C(NC(Cc1cc(=O)[nH]c2ccccc12)C(=O)O)c1ccc(Cl)cc1 (centres undefined) [REBAMIPIDE] |
